pEC50: −log10 of the molar value. Where two headings read alike, the source gives them in different places.
Legend:
HIV-1 (IIIB) = assay: Antiviral assay in MT-4 cells; type: cell-based; conditions: HIV-1 IIIB infected MT-4 cells, 5 days, Cell Titer Glo, read-out: MT4 EC50
Method in brief: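 MT-4 cells infected with a 1:250 dilution of HIV-1 IIIB stock were incubated with serially diluted (1:3) compound for 5 days at 37 °C. Viability read by Cell Titer Glo luminescence; EC50 is the concentration giving 50% decrease in signal, from sigmoidal dose-response fits.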

pLai RLuc reporter virus = assay: HIV MT-4 serum shift antiviral reporter assay; type: cell-based; conditions: for EC50: Human immunodeficiency virus 1, 72 h; for pEC50: 72 h, Renilla Glo
Method in brief: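 MT-4 cells pre-infected with pLai RLuc virus for 2 h at 37 °C, then incubated 72 h at 37 °C with compound in medium (RPMI, 10% FBS) with or without 50% human serum; Renilla luminescence read. EC50 from sigmoidal fit; serum shift = EC50(HS/CCM)/EC50(CCM).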

[1] = Monkey PK after single-dose intravenous infusion; type: in vivo, monkeys; conditions: for half-life: cynomolgus, monkeys, single-dose intravenous infusion for 30 minutes, plasma, read-out: Cyno half-life (converted)
Procedure: Test compound PK was determined in monkeys (Labcorp, Madison, Wis.) following a single-dose intravenous infusion for 30 minutes. The dosing vehicle was 10% N-methylpyrrolidone; 50% polyethylene glycol 300 and 40% water (pH 8.3) for intravenous administration in monkeys. Serial blood samples were collected at predose, 0.25, 0.48 (before end of infusion), 0.58, 0.75, 1, 1.5, 2, 4, 8, 12, 24, 48, 72, 96, 120, 144, and 168 hours postdose (based on start of infusion) and plasma test compound concentrations were quantified using an LC-MS/MS method.
Nonclinical plasma samples were prepared by addition of 200 μl cold acetonitrile/internal standard solution to 96-well plates containing 50 μl aliquots of each plasma sample. After protein precipitation, each of the supernatants (50 μl) were transferred to clean 96-well plates and diluted with 450 μl of water. The sample injection volume was 2 μl. Samples were analyzed by a multiple reaction monitoring LC-MS/MS method. LC-MS system consisted of a Cohesive LX-2 multiplex with two identical DIONEX UltiMate 3000 RS pumps, Hypersil Gold C18 HPLC column (50×2.1 mm, […]; Thermo Fisher Scientific), and the ABSciex QTRAP5500 Mass Spectrometer LC-MS/MS system. Chromatography was performed using 0.1% formic acid and 1% isopropyl alcohol in aqueous solution (MP A), and 0.1% formic acid and 1% isopropyl alcohol in acetonitrile (MP B).
Plasma PK parameters for test compounds in monkeys were estimated via noncompartmental analysis using the software program Phoenix WinNonlin, version 6.3 (Pharsight Corporation, Mountain View, Calif.). The following plasma PK parameters were estimated in nonclinical species (as appropriate): observed peak plasma concentration (Cmax), time to reach Cmax (Tmax), last quantifiable plasma concentration (Clast), tin, time of Clast (Tlast), area under the plasma concentration-time curve (AUC) from time 0 to Clast (AUClast), AUC from time 0 to infinity (AUCinf), CL, mean residence time (MRT), and volume of distribution at steady state (Vss).

[2] = Cytotoxicity assay in MT-4 cells; type: cell-based; conditions: human, uninfected MT-4 cells, 5 days, Cell Titer Glo; read-out: CC50
Method in brief: (§1)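 Uninfected MT-4 cells were incubated with 1:3 serially diluted compound in RPMI/10% FBS for 5 days at 37° C. Viability was read by CellTiter-Glo luminescence, with 10 μM puromycin as the baseline cytotoxicity control. Values are the concentration giving a 50% decrease in luminescence, from sigmoidal dose-response fits.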

MT-4 cells = assay: Cytotoxicity assay in MT-4 cells; type: cell-based
Method in brief: as §1

[3] = Human immunodeficiency virus 1, IIIB, MT4, 120 h
[4] = read-out: RLUC CCM (nM), cell culture media (RPMI, 10% FBS), 72 h, Renilla Glo

Structure (SMILES) | pEC50 (HIV-1 (IIIB); [3]) | EC50 (pLai RLuc reporter virus; [4]) [nM] | pEC50 (pLai RLuc reporter virus; read-out: RLUC 50% HS, HS/CCM: 50% human serum) | half-life [1] [h] | CC50 at 5 days [2] [nM] | EC50 (pLai RLuc reporter virus; read-out: RLUC 50% HS (nM), HS/CCM: 50% human serum, 72 h, Renilla Glo) [nM] | pEC50 (HIV-1 (IIIB)) | pEC50 (pLai RLuc reporter virus; HS/CCM: 50% human serum, read-out: RLUC 50% HS) | pEC50 (pLai RLuc reporter virus; cell culture media (RPMI, 10% FBS), read-out: RLUC CCM) | Cyno half-life ([1]; in vivo, iv) [h] | CC50 (MT-4 cells) [nM]
C[C@H]1CC[C@H](C)N2CN1C(=O)c1c(O)c(=O)c(C(=O)NCc3c(F)cc(F)cc3F)cn12 [Example C27, (1S,2R,5S)-8-hydroxy-2,5-dimethyl-7,9-dioxo-N-(2,4,6-trifluorobenzyl)-2,3,4,5,7,9-hexahydro-1,6-methanopyrido[1,2-b][1,2,5]triazonine-10-carboxamide] | 8.89 | 0.55 | 6.23 | 48 | 9550 | – | – | – | – | – | –
C[C@H]1C=C[C@H](C)N2CN1C(=O)c1c(O)c(=O)c(C(=O)NCc3ccc(F)cc3F)cn12 [Example C30, (1S,2S,5S)-8-hydroxy-2,5-dimethyl-7,9-dioxo-N-(2,4-difluorobenzyl)-2,5,7,9-tetrahydro-1,6-methanopyrido[1,2-b][1,2,5]triazonine-10-carboxamide] | 8.89 | 0.32 | – | 6 | 35800 | 29 | – | – | – | – | –
O=C(NCc1c(F)cc(F)cc1F)c1cn2c(c(O)c1=O)C(=O)N1CCCCN2C1 [Example C109, (1S)-8-hydroxy-7,9-dioxo-N-(2,4,6-trifluorobenzyl)-2,3,4,5,7,9-hexahydro-1,6-methanopyrido[1,2-b][1,2,5]triazonine-10-carboxamide] | – | – | – | – | – | – | 8.92 | 7.94 | 9.21 | 4.7 | 15200

Reference: patent publication US11613546B2, “Substituted pyridotriazine compounds and uses thereof” (Gilead Sciences, Inc., priority 2021, dated 2023)
